This is an account of results in patent publication US10316035B2, “Triazolopyridine inhibitors of myeloperoxidase” (BRISTOL-MYERS SQUIBB COMPANY, priority 2015, dated 2019).

For test [1], the target named is T1, myeloperoxidase (MPO) (Homo sapiens, UniProt P05164).
T1 sequence (P05164 49-745): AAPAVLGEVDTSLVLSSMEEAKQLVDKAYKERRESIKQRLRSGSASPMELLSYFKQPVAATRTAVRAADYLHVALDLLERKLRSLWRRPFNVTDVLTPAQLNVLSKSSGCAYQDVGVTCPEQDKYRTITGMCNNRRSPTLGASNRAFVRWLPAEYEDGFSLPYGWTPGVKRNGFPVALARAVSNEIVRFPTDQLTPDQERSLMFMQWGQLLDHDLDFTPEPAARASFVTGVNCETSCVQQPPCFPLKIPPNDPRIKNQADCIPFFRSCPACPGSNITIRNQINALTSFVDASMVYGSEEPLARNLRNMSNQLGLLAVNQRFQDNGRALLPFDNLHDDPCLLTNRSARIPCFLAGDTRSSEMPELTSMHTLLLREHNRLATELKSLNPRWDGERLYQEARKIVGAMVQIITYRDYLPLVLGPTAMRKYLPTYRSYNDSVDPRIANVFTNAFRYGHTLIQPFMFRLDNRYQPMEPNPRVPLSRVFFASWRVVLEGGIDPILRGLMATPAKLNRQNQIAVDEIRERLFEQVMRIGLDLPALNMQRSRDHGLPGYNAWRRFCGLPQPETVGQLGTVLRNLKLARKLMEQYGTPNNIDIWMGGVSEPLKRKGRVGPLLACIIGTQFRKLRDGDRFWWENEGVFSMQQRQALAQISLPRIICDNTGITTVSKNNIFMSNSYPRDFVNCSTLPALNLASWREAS
The test can be described thus: MPO peroxidation assay (Amplex Red assay). It counts as biochemical. Put shortly:
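Peroxidase turnover of Amplex Red to fluorescent resorufin (Ex 535/Em 590 nm) was followed for 15 min in 100 mM KPi, pH 7.4, after 10 min room-temperature preincubation of compound with 200 pM enzyme plus 40 nM H2O2. The substrate mix contained 200 μM Amplex Red and 10 mM H2O2. IC50s came from linear-phase rates (180–540 s) fitted with a Hill equation.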

The target of test [2] is T1, myeloperoxidase (MPO). Put plainly: MPO chlorination assay (APF assay). It is filed as biochemical. The procedure: [formula] where A=minimal Y value (activity level of inhibited sample), B=maximal Y value (activity level of uninhibited sample), C=Log IC50, D=Hill Slope, x=concentration of inhibitor. MPO Chlorination Assay (APF Assay)
MPO chlorination activity was measured in 100 mM KPi (pH 7.4) by utilizing the non-fluorescent reagent Aminophenyl fluorescein (APF, Invitrogen catalog #A36003). APF is cleaved by (—OCl) to yield the fluorescent compound fluorescein. Reactions were carried out in 50 μL total volume by adding a 25 μL mixture of 200 pM myeloperoxidase and 120 mM NaCl to 100 nL inhibitor in 100% DMSO in a 384 well, non-binding surface clear bottom plate (CORNING® #3655). Enzyme, inhibitor, and chloride were preincubated for ten minutes at room temperature.
After the ten minute preincubation, 25 μL of an APF mixture containing […], 120 mM NaCl and 10 μM H2O2 was added to the plate using the internal dispensing system of a Hammatsu FDSS 6000. Kinetic determinations were carried out immediately on the FDSS 6000 (3 minute kinetic read, 1 read every second, ex: 485 nm, em: 535 nm). IC50 values for inhibitors were calculated by taking the slope of the linear portion of the kinetic measurement (20 seconds to ˜80-120 secs).
IC50 values were calculated by determining the slope of the linear portion of the kinetic trace ([…]), and using that calculated slope to determine % inhibition occurring at each concentration of inhibitor using the following equation:
[formula] where A=minimal Y value (activity level of inhibited sample), B=maximal Y value (activity level of uninhibited sample), C=Log IC50, D=Hill Slope, x=concentration of inhibitor. EPX Bromination Assay

[3] abbreviates: MPO peroxidation, potency range class, read-out: Amplex Red IC50.
[4] abbreviates: MPO chlorination, potency range class, read-out: APF IC50.

For orientation: IC50 means the concentration that gives 50% inhibition.

Molecules are shown by their SMILES.

Consider `Nc1cc(OCc2cc(Cl)ccc2OC(F)(F)F)c2nn[nH]c2n1` [Example 36, 7-(5-Chloro-2-(trifluoromethoxy)benzyloxy)-3H-[1,2,3]triazolo[4,5-b]pyridin-5-amine], for which the IC50 in test [1] (setting [3]) and in test [2] (setting [4]) was 1 to 100 nM each time.

For the molecule `Nc1cc(OCc2cc(Cl)ccc2OC2CCCC2)c2nn[nH]c2n1` [Example 43, 7-(5-Chloro-2-(cyclopentyloxy)benzyloxy)-3H-[1,2,3]triazolo[4,5-b]pyridin-5-amine], the figures for the IC50 in test [1] (setting [3]) and in test [2] (setting [4]) were 1 to 100 nM and 101 to 999 nM, respectively.

`CS(=O)(=O)c1ccc(Cl)cc1COc1cc(N)nc2[nH]nnc12` [Example 50, 7-(5-Chloro-2-(methylsulfonyl)benzyloxy)-3H-[1,2,3]triazolo[4,5-b]pyridin-5-amine]: the IC50 in test [1] (setting [3]) is 1 to 100 nM; in test [2] (setting [4]), 101 to 999 nM.

Consider `Nc1cc(OCC2CCCc3ccccc32)c2nn[nH]c2n1` (stereo not shown) [Example 52, 7-((1,2,3,4-Tetrahydronaphthalen-1-yl)methoxy)-3H-[1,2,3]triazolo[4,5-b]pyridin-5-amine], for which the IC50 in test [1] (setting [3]) was 101 to 999 nM; in test [2] (setting [4]), 1000 to 10000 nM.

`COc1ccc(Cl)cc1COc1cc(N)nc2[nH]nnc12` [Example 57, 7-(5-Chloro-2-methoxybenzyloxy)-3H-[1,2,3]triazolo[4,5-b]pyridin-5-amine]: the IC50 in test [1] (setting [3]) and in test [2] (setting [4]) was 1 to 100 nM each time.

Turning to `Nc1cc(OCc2cc(Br)ccc2F)c2nn[nH]c2n1` [Example 61, 7-(5-Bromo-2-fluorobenzyloxy)-3H-[1,2,3]triazolo[4,5-b]pyridin-5-amine], the IC50 in test [1] (setting [3]) and in test [2] (setting [4]) was 1 to 100 nM throughout.

Turning to `CC1CCCC(C)C1COc1cc(N)nc2[nH]nnc12` (stereo not shown) [Example 133, 7-((2,6-Dimethylcyclohexyl)methoxy)-3H-[1,2,3]triazolo[4,5-b]pyridin-5-amine], the IC50 in test [1] (setting [3]) is 1 to 100 nM; in test [2] (setting [4]), 101 to 999 nM.

In the case of `CC(Oc1cc(N)nc2[nH]nnc12)c1cccc(F)c1` (stereo not shown) [Example 139, 7-(1-(3-Fluorophenyl)ethoxy)-3H-[1,2,3]triazolo[4,5-b]pyridin-5-amine], the IC50 is 1 to 100 nM in test [1] (setting [3]) and 101 to 999 nM in test [2] (setting [4]).

On to `Nc1cc(OCc2cc(C(=O)N3CCC(Cc4ccccc4)C3)ccc2Cl)c2nn[nH]c2n1` (stereo not shown) [Example 177, (3-((5-amino-3H-[1,2,3]triazolo [4,5-b]pyridin-7-yloxy)methyl)-4-chlorophenyl)(3-benzylpyrrolidin-1-yl)methanone], for which the IC50 in test [1] (setting [3]) lay within 101 to 999 nM; in test [2] (setting [4]) it was 1000 to 10000 nM.

As for `Nc1cc(OCc2cc(S(F)(F)(F)(F)F)ccc2F)c2nn[nH]c2n1` [Example 226, 7-(5-Pentafluorosulfanyl-2-fluorobenzyloxy)-3H-[1,2,3]triazolo[4,5-b]pyridin-5-amine], the IC50 was in the range of 1 to 100 nM in test [1] (setting [3]) and 101 to 999 nM in test [2] (setting [4]).

With `Nc1cc(OCc2c(Cl)cccc2Cl)c2nn[nH]c2n1` [Example 234, 7-((2,6-Dichlorobenzyl)oxy)-3H-[1,2,3]triazolo[4,5-b]pyridin-5-amine], the IC50 in test [1] and in test [2] was 1 to 100 nM in each case.

For the molecule `COc1cc(Br)ccc1COc1cc(N)nc2[nH]nnc12` [Example 242, 7-((4-Bromo-2-methoxybenzyl)oxy)-3H-[1,2,3]triazolo[4,5-b]pyridin-5-amine], the IC50 in test [1] (setting [3]) and in test [2] (setting [4]) was 1 to 100 nM throughout.

Consider `NC(=O)c1ccccc1COc1cc(N)nc2[nH]nnc12` [Example 254, 2-(((5-Amino-3H-[1,2,3]triazolo[4,5-b]pyridin-7-yl)oxy)methyl)benzamide], for which the IC50 in test [1] (setting [3]) and in test [2] (setting [4]) was 1000 to 10000 nM throughout.

As for `N#Cc1ccc(OC(F)F)cc1COc1cc(N)nc2[nH]nnc12` [Example 351, 2-(((5-amino-3H-[1,2,3]triazolo[4,5-b]pyridin-7-yl)oxy)methyl)-4-(difluoromethoxy)benzonitrile], in test [1] (setting [3]), the IC50 lay in the range of 1 to 100 nM.

Take `N#Cc1ccc(OC2CC2)cc1COc1cc(N)nc2[nH]nnc12` [Example 352, 2-(((5-amino-3H-[1,2,3]triazolo[4,5-b]pyridin-7-yl)oxy)methyl)-4-cyclopropoxybenzonitrile]: the IC50 in test [1] (setting [3]) fell in the range of 1 to 100 nM.
